{
  "source": "patent EP2349259B1",
  "about": "“INHIBITORS OF MITOSIS FOR […] IN THERAPY” (Array Biopharma, Inc., priority 2008, dated 2010)",
  "key": {"[1]": {"assay": "Determination of MTD of Compound 4 in mice (HT-29 xenograft study)", "conditions": "mouse, in vivo; female nude mice with subcutaneous HT-29 xenografts; compound dissolved in normal saline", "description": "Female nude mice were implanted subcutaneously with 5 x 10^6 HT-29 cells in 100 µL PBS. Ten days Inter, tumors were measured and mice randomized into groups of three with average tumor volume in each group of approximately 240 mm^3. Compound 4 was dissolved in normal saline immediately before dosing. It was determined that 20 mg/kg was the MTD for Compound 4. Dose volume was 10 mL/kg. Dosing was vehicle alone on day 1; and Compound 4 at 20 mg/kg on day 1; and 20 mg/kg on days 1 and 3. At various time points after dosing (24, 48, 72, 96, 120 and 144 hours), mice were euthanized by CO2 inhalation, and the tumors were harvested and immediately placed in formalin. The vehicle control group samples were collected 24 and 72 hours after dosing. The day I group samples were collected 24, 48, 72 and 96 hours after that dose. The day 1 and day 3 group samples were collected 72, 96, 120 and 144 hours after the first dose. Paraffin blocks of tumor tissue were prepared by standard procedures. […] Spindle structures were manually counted in three 40X areas of each sample, using a fluorescent microscope. Apoptosis was quantitated by manual counting of TUNEL positive cells, also in three 40X areas of each sample (TUNEL staining using the In Situ Cell Death Detection Kit, AP from Roche)."}, "[2]": {"assay": "Tolerability in tumor growth inhibition study on different dosing schedules (HT-29)", "type": "in vivo, nude mice", "conditions": "10 mg/kg IP on days 1, 2, 3, 4 and 5", "description": "Female nude mice were implanted subcutaneously with 5 x 10^6 HT-29 cells in 100 µL PBS. Eleven to fourteen days later, tumors were measured and mice randomized into groups of seven with average tumor volume in each group of approximately 230 mm^3. Compound 4 was dissolved in normal saline immediately prior to dosing, and administered IP at a volume of 10 mL/kg. Dosing was vehicle alone on day 1 and day 2; and Compound 4 at 20 mg/kg on day 1; 20 mg/kg on days I and 2; 20 mg/kg on days 1 and 3; 5 mg/kg on days 1, 2 and 3; 10 mg/kg on days 1, 2 and 3; 10 mg/kg on days 1, 2, 3, 4 and 5; 10 mg/kg on days 1 and 2; and 10 mg/kg on days 1 and 3. Animal weights and tumor volumes were measured (using electronic calipers) twice a week. Tumor volume was calculated using the formula: volume = (width^2 x length)/2. Dosing at 10 mg/kg on days 1, 2, 3, 4 and 5 was not tolerated (greater than 20% weight loss and/or death in some of the mice)."}, "[3]": {"assay": "Determination of MTD in a Phase 1 Study", "type": "in vivo, human", "conditions": "IV on Days 1 and 2 every two weeks", "source_text": "A total of 13 patients with various solid tumors and with a median age of 66 years (range 40-79 years old) were enrolled in a human phase 1 clinical trial (see \"Phase 1 Safety and Phamacokinetic Study of ARRY-520 in Solid Tumors.\" http://clinicaltrials.gov/ct2/show/NCT00462358). The solid tumors treated were breast cancer (2), colorectal cancer (2), non-small cell lung cancer (2), pancreatic cancer (2), bladder cancer, salivary gland cancer (adenoid cystic), esophageal cancer, mesothelioma cancer, and a mixed small cell lung cancer / non-small cell lung cancer. Compound 4 was provided for administration as a lyophilized powder contained in a Type 1 clear glass vial for IV use. The dose levels administered were 1.25 and 1.6 mg/m^2/day of Compound 4 on Days 1 and 2 every two weeks."}},
  "data": [
    {"smiles": "CON(C)C(=O)N1N=C(c2cc(F)ccc2F)S[C@@]1(CCCN)c1ccccc1", "note": "[Compound 4, (S)-2-(3-aminopropyl)-5-(2,5-difluorophenyl)-N-methoxy-N-methyl-2-phenyl-1,3,4-thiadiazole-3(2H)-carboxamide]", "values": [
      {"measurement": "MTD", "setting": "[1]", "value": 20, "unit": "mg/kg"},
      {"measurement": "tolerability of dosing schedule", "setting": "[2]; female nude mice with HT-29 xenografts", "value": "not tolerated"},
      {"measurement": "weight loss", "setting": "[2]; weight loss and/or death in some of the mice", "value": "greater than 20%"},
      {"measurement": "MTD", "setting": "[3]; 13 patients with various solid tumors, dose levels 1.25 and 1.6 mg/m^2/day", "value": 1.25, "unit": "mg/m^2/day"},
      {"measurement": "DLTs", "setting": "[3]; patients with solid tumors", "value": "Grade 3 hyponatremia, anorexia, AST increase and febrile neutropenia"},
      {"measurement": "MTD, cumulative dose per cycle", "setting": "[3]; patients with solid tumors", "value": 2.5, "unit": "mg/m^2"}
    ]}
  ]
}
